Reference: patent EP0470323A2, “New salts of the nicotinic acid with aminobenzylic compounds and their pharmaceutical use” (BROMLEY LIMITED, priority 1990, dated 1992)

Legend:
[1] = tested on: Hypercholesterolaemia caused by Trit WR1339 in the mouses; assay: Hypercholesterolaemia of the mouse caused by Triton WR 1339; assay type: in vivo; conditions: dose 2 mM/kg per os
Protocol: The method described by Garattini S. (Arzneim,Forsch 9, 206; 1959) with some modifications has been followed.
The mouses used have been males of 22 to 28 grams body weight, on an empty stomach but with water "ad libitum" since 12 hours. The hyperlipidaemia was induced by means of an intraperitoneum administration of […] of Triton WR 1339, with dosage 300 mg/kg in a physiological solution. The subject products were administered at the same time in clear plain water, always in a volume of […] by means of a gastric probe. The animals were sacrified after 20 hours, by cutting them the carotids. The blood was collected in some plastic test-tubes, and was centrifuged at 3500 rpm for ten minutes. Thereafter the total cholesterol (Sornay R and colleagues, Arzeneim Forsch, 26,885 1976) and the total lipids (Chonhelmer R and colleagues, Biological Chemistry 106, 745, 1934) were determined.

[2] = tested on: Hypertriglyceridaemia caused by ethanole in the rats; assay: Hypertriglyceridaemia caused by ethanol in rats, activity at three dose levels; assay type: in vivo; conditions: rat
From the text: (§1) For this test group the methods described by Sistori C.R. and colleagues (Atherosclerosis 30, 45; 1978) is followed.
(§2) The hypertriglyceridaemia has been induced into the male rats having a body weight of 160 - 170 g by giving them to drink, for 4 consecutive days, a solution of 10% ethanole in water.

[3] = tested on: Hypertriglyceridaemia caused by ethanole in the rats; assay: Hypertriglyceridaemia caused by ethanol in rats, duration of the effects; assay type: in vivo; conditions: rat, dose 1 mM/kg/os
From the text: as §1, §2
In order to perform the particular kinetics of the compound in accordance with the example 1 following the instant invention, it was considered appropriate, anyway, to evaluate the duration of the hypolipaemizing effect in comparison to that of the nicotinic acid.
A group of normal animals was treated with the vehicle only and did serve as a negative control group.

[4] = tested on: hypertrigliceridaemia from olive oil in the rats; assay: Hypertriglyceridaemia from olive oil in the rat (serum lactescence); assay type: in vivo; conditions: dose 2 mM/kg/os
Protocol: The method described by Zucker I.H. (Sci. Anal. Lab. 24, 114, 1972) has been followed.
Male rats have been used, whose body weight was 150-200 g. The animals were without eating with water "ad libitum" and all this beginning 24 hours before the experiment. The hyperlipaemia was induced by the administration of olive oil by mouth; its composition as to the fat acids was as follows: palmitic acid 10% palmitoleic acid 1%, stearic acid 3%, […] and linoleic acid 7% (all percentages are by weight). The quantity of olive oil administered, by means of a gastric probe, was 10 ml/kg. The treatments were made by finely pounding with a china mortar and by suspending in the olive oil the examined compounds. […] The positive control animals received only olive oil; moreover, there was also a group of negative control animals who received plain water in quantities of 10 ml/kg. Every three hours a group of rats (10) was killed in a light ethereal anaesthesia, in order to be able to appreciate the percentage of triglycerides in the blood. The animals were bled by cutting them the carotids and the blood was collected in plastic test-tubes, capacity 10 ml each, and was centrifuged for ten minutes at 3500 rpm. The evaluated parameter was the lactescence of the serum, which is directly proportional to the contents of kilomicrons and therefore of triglycerides (Zucker, see above the mention). The serum has been diluted 1:5 in a physiologic solution and was read at the spectrophotometer at […] against white (physiologic solution). From the individual optical Density (D.O.) data one could calculate for each group the average of the standard error. The statistical analysis was performed by means of the t of Dunnett.

[5] = tested on: aggregation of the platelets caused by the collagene; assay: Anti-aggregating ex vivo activity against collagen in the rat; conditions: rat, 1,00 mM/kg os for 4 days
Protocol: Six groups of 15 male rats of 200 - 250 g have been used.
The blood taken from the three rats of each group has been mixed and centrifuged during 6 minutes at 1400 rpm, at room temperature. After having taken the plasma full of platelets (PRP) the thereunder floating material has been centrifuged again (4000 rpm during 10 minutes) in order to have the plasma with few platelets (PPP) separated from the balance. The PRP has been diluted with a part of PPP in order to bring the number of platelets to 350 ± 50 x 10³/mm³. The aggregation has been evaluated in accordance with the method of Minsker D.H. and coll. (J. Pharmacol.Exp.Ther. 210 37 1979) by using an ELVI 840 two-channels aggregometer and an Omniscribe recorder B.500. A quantity of 0,25 ml PRP has been used, transferred into the aggregometer for two minutes at 37°C and stirred at 1000 rpm. The light intensity was arranged in such a way, to obtain 0% transmittance with the PRP and 100% with the PPP. After 2′ incubation, by means of microsyringe the collagene was added to the PRP in a volume quantity of 5 mcl with the final concentration of 4 mcg/ml.
From the aggregation trace of the recorder the following data have been evaluated: • a) latent time of the aggregation (seconds between the introductions of collagene and the starting of the aggregation) • b) transmittance increase percentage (maximum aggregation). The same proceeding was repeated for all animals, always by mixing the blood of three rats belonging to the same group and by obtaining in this manner five aggregation curves per group.

[6] = tested on: red cells in the rat; assay: Red cell deformability / filtration, Schmidt-Schönbein method; assay type: in vivo; conditions: dose 3 x 0,5 mM/kg/os
From the text: (§3) steresis (Teiltel P.: Nouv. Rev. Franç. Hématol. 7, 195, 1967). Any alteration, almost undoubtely at the level of the red cell's membrane, cause some damaging variations of the red cell's elasticity thus making more difficult the passing through the capillary vessels having more reduced diameter, and therefore increasing the flow resistance in the peripheral vessels systems. In order to determine the effect caused by the compound according to the Example 1, on these features of the red cell, the method described by Schmidt, Schonbein and colleagues (Blut 26, 369, 1973) has been used.
In the circulatory flow, the above mentioned capillary vessels being excluded, the blood cells do normally circulate being attached between each other because of their adhesiveness. In order to study this adhesion force, the above mentioned Teitel method has been used. Male rats of 150 g body weight approximately have been employed, and they have been treated for three consecutive days with 0,5 mM/kg/os of the compound according to the Example 1, or otherwise Buflomedil, or even Pentosiphillin used as comparison substance. After the last treatment the animals, without eating from 18 hours, have been killed in a light ethereal anaesthesy and the blood was collected over an 0,2 molar EDTA (9 and 1 volumes respectively). The red cells filtering possibility, measured with the Teitel method, wherein the quantity of red cells passing, in high haematocritical conditions, through a paper filter with holes of 20-40 µm in a previously determined time, has been ascertained as follows: the blood was centrifuged for ten minutes at 2000 rpm in order to obtain the massing of the red cells, two ml of the blood collected as above were put into an upside down turned cone made with filtering paper, being previously wetted with a physiological solution. The volume passing through the filter in 2 - 4 - 8 and 16 minutes is then measured. […]

[7] = tested on: red cells in the rat; assay: Red cell adhesivity / filtration, Teitel method; assay type: in vivo
From the text: as §3
In the circulatory flow, the above mentioned capillary vessels being excluded, the blood cells do normally circulate being attached between each other because of their adhesiveness. In order to study this adhesion force, the above mentioned Teitel method has been used. Male rats of 150 g body weight approximately have been employed, and they have been treated for three consecutive days with 0,5 mM/kg/os of the compound according to the Example 1, or otherwise Buflomedil, or even Pentosiphillin used as comparison substance. After the last treatment the animals, without eating from 18 hours, have been killed in a light ethereal anaesthesy and the blood was collected over an 0,2 molar EDTA (9 and 1 volumes respectively). The red cells filtering possibility, measured with the Teitel method, wherein the quantity of red cells passing, in high haematocritical conditions, through a paper filter with holes of 20-40 µm in a previously determined time, has been ascertained as follows: the blood was centrifuged for ten minutes at 2000 rpm in order to obtain the massing of the red cells, two ml of the blood collected as above were put into an upside down turned cone made with filtering paper, being previously wetted with a physiological solution. The volume passing through the filter in 2 - 4 - 8 and 16 minutes is then measured. The average filtration time T 1/2 is reckoned on semi-logarithmic paper by putting on the abscissae the logarithm of the time, and on the ordinates the percentage of blood filtered. In order to follow the Schmidt Schönbein method, the here after described proceeding has been performed: 0,2 ml of a suspension of red cells at 2% obtained by diluting the blood with the autological plasma, then it was placed into an appropriate device permitting to filter this blood through a filter (millipores) of 5 µm mashes at a filtration pressure of 50 mm water. With a chronometer one determines the time required for the passage of the whole sample through the filter.
At time same time, one measures, in the same conditions, the same parameter for a plasma sample. One calculates then the relative filtration time by dividing the time required to filter the diluted blood sample by the time being necessary to filter the plasma sample. For each group the average and the standard error of the individual data obtained was reckoned. The statistical evaluation was obtained by means of the Dunnett test.

[8] = 20 hours after Triton WR 1339 i.p.
[9] = PRP 2 hours after last treatment, collagene 4 mcg/ml

O=C(O)c1cccnc1 [Nicotinic acid, nicotinic acid]
Tot.Cholesterol M ± E.S. [1, 8]: 215 ± 16 mg/100 ml
Tot.Lipids M ± E.S. [1, 8]: 1643 ± 131 mg/100 ml
Tot.Cholesterol % vs contr. ([1]; reduction): 39,9%
Tot.Lipids % vs contr. ([1]; reduction): 32,5%
Triglycerids M ± E.S. ([2]; dose 1,0 mM/kg/os once a day for 4 days, 4 hours after last treatment): 156,4 ± 18,1 mg/100 ml
Triglycerids % vs contr. positivi ([2]; dose 1,0 mM/kg/os, 4 hours after treatment): -24,7%
decrease (of triglycerides vs positive controls) ([2]; dose of 1 mM/kg per os): 24,7%
% variation vs positive controls (Trigliceridi) ([3]; 4 h): -29,4%
Trigliceridi ([3]; 4 h from the last treatment): 181,6 ± 15,7 mg/100 ml
% variation vs positive controls (Trigliceridi) ([3]; 6 h): -25,5%
Trigliceridi ([3]; 6 h from the last treatment): 176,0 ± 11,2 mg/100 ml
% variation vs positive controls (Trigliceridi) ([3]; 12 h): -10,3%
Trigliceridi ([3]; 12 h from the last treatment): 184,6 ± 8,9 mg/100 ml
% variation vs positive controls (Trigliceridi) ([3]; 16 h): -3,1%
Trigliceridi ([3]; 16 h from the last treatment): 180,7 ± 14,5 mg/100 ml
% variation vs positive controls (Trigliceridi) ([3]; 24 h): +7,9%
Trigliceridi ([3]; 24 h from the last treatment): 178,4 ± 9,7 mg/100 ml
Serum opt.density at the indicated times (M ± E.S.) ([4]; 3 h): 258 ± 14,9
Serum opt.density at the indicated times (M ± E.S.) ([4]; 6 h): 1312 ± 58,2
Serum opt.density at the indicated times (M ± E.S.) ([4]; 9 h): 1161 ± 53,2
Serum opt.density at the indicated times (M ± E.S.) ([4]; 12 h): 1000 ± 31,3
Serum opt.density at the indicated times (M ± E.S.) ([4]; 15 h): 510 ± 18,4
Serum opt.density at the indicated times (M ± E.S.) ([4]; 18 h): 250 ± 21,4
Latency time, % variation vs controls [5]: +8,0%
Transmittance percentage, % variation vs controls [5]: -13,0%
Latency time (sec.) [5, 9]: 40,5 ± 4,0 sec.
Transmittance percentage (maximum aggregation) [5, 9]: 68,4 ± 5,2%

CC(=O)CCCCn1c(=O)c2c(ncn2C)n(C)c1=O [pentossifillin]
Schmidt-Schönbein method Δ % vs contr. [6]: 52,8%
Teitel method Δ % vs contr. ([7]; dose 3 x 0,5 mM/kg/os): 40,1%
Teitel method T1/2 min. M ± E.S. ([7]; dose 3 x 0,5 mM/kg/os (three consecutive days)): 2,18 ± 0,19 min.
